Source: PubChem BioAssay (NCI)
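Grown in 96-well plates, cells were treated for 48 hours with each compound at five concentrations. Insufficient inhibition: endpoint recorded as highest concentration tested. GI50 = concentration required for 50% inhibition of growth. The concentration for full growth arrest is given as TGI.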

What follows are compounds tested on NCI-H226 lung (assay: NCI-60 cell line screen, 48 h).
With `COC(=O)C1=C(C)N(NC(=O)c2ccccc2)C(C)(O)C12CCOC2=O` (stereo not drawn) the TGI was over 100 µM.
In the case of `CCC[CH2][Ge]([CH2]CCC)([CH2]CCC)[O]C(=O)CC(=O)c1ccccc1`, the GI50 is reported as 3.23 µM and the TGI is reported as 17.2 µM.
In the case of `CCOC(CCNCC(OCC)OCC)OCC`, the TGI is reported as over 10 µM.
With `CC1=CC(/C=C(\C)CCCc2ccoc2)C2(OC(=O)C(C)=C2O)[C@H]2C1CC[C@@H]2C` (stereo partly drawn) the TGI was 54.6 µM.
Compound `O=C(O/N=C1/CCCC/C1=C\c1ccccc1)c1ccccc1` has a TGI of over 100 µM.

Each compound was assayed on A549 NSCLC (assay: NCI-60 cell line screen, 48 h).
For `COc1cc(C2c3cc4c(cc3OC(N3CCCC3)C2C)OCO4)cc(OC)c1O` (stereo not drawn), the TGI was over 100 µM.
With `COC(=O)C1=C(C)N(NC(=O)c2ccccc2)C(C)(O)C12CCOC2=O` (stereo not drawn) the TGI was over 100 µM.
Compound `CCC[CH2][Ge]([CH2]CCC)([CH2]CCC)[O]C(=O)CC(=O)c1ccccc1` has a GI50 of 0.735 µM and a TGI of 15.9 µM.
`CCOC(CCNCC(OCC)OCC)OCC` showed a TGI of over 10 µM.
`CC1=CC(/C=C(\C)CCCc2ccoc2)C2(OC(=O)C(C)=C2O)[C@H]2C1CC[C@@H]2C` (stereo partly drawn) gave a TGI of over 100 µM.
Compound `O=C(O/N=C1/CCCC/C1=C\c1ccccc1)c1ccccc1` has a TGI of over 100 µM.

Each compound was assayed on CCRF-CEM leukemia (assay: NCI-60 cell line screen, 48 h).
`COc1cc(C2c3cc4c(cc3OC(N3CCCC3)C2C)OCO4)cc(OC)c1O` (stereo not drawn) was tested, and the TGI was over 100 µM.
With `COC(=O)C1=C(C)N(NC(=O)c2ccccc2)C(C)(O)C12CCOC2=O` (stereo not drawn) the TGI was over 100 µM.
Work on `CCC[CH2][Ge]([CH2]CCC)([CH2]CCC)[O]C(=O)CC(=O)c1ccccc1` yielded a GI50 of 0.266 µM and a TGI of 10.6 µM.
`CCOC(CCNCC(OCC)OCC)OCC` showed a TGI of over 10 µM.
`CC1=CC(/C=C(\C)CCCc2ccoc2)C2(OC(=O)C(C)=C2O)[C@H]2C1CC[C@@H]2C` (stereo partly drawn) showed a TGI of 58.6 µM.
`O=C(O/N=C1/CCCC/C1=C\c1ccccc1)c1ccccc1` showed a TGI of over 100 µM.

The compounds below were run on KM20L2 colon (assay: NCI-60 cell line screen, 48 h).
Compound `COC(=O)C1=C(C)N(NC(=O)c2ccccc2)C(C)(O)C12CCOC2=O` (stereo not drawn) has a TGI of over 100 µM.
For `CCC[CH2][Ge]([CH2]CCC)([CH2]CCC)[O]C(=O)CC(=O)c1ccccc1`, the GI50 was 0.77 µM and the TGI was 17 µM.
With `O=C(O/N=C1/CCCC/C1=C\c1ccccc1)c1ccccc1` the TGI was over 100 µM.

These compounds were tested on PC-3 prostate (assay: NCI-60 cell line screen, 48 h).
With `COc1cc(C2c3cc4c(cc3OC(N3CCCC3)C2C)OCO4)cc(OC)c1O` (stereo not drawn) the TGI was over 80.6 µM.
`CCOC(CCNCC(OCC)OCC)OCC` was tested, and the TGI was over 10 µM.

Each compound was assayed on SF-539 CNS (assay: NCI-60 cell line screen, 48 h).
`COc1cc(C2c3cc4c(cc3OC(N3CCCC3)C2C)OCO4)cc(OC)c1O` (stereo not drawn) was tested, and the TGI was 41.2 µM.
Compound `COC(=O)C1=C(C)N(NC(=O)c2ccccc2)C(C)(O)C12CCOC2=O` (stereo not drawn) has a TGI of over 100 µM.
Compound `CCC[CH2][Ge]([CH2]CCC)([CH2]CCC)[O]C(=O)CC(=O)c1ccccc1` has a GI50 of 1.57 µM and a TGI of 6.17 µM.
In the case of `CCOC(CCNCC(OCC)OCC)OCC`, the TGI is reported as over 10 µM.
With `CC1=CC(/C=C(\C)CCCc2ccoc2)C2(OC(=O)C(C)=C2O)[C@H]2C1CC[C@@H]2C` (stereo partly drawn) the TGI was 36.8 µM.
In the case of `O=C(O/N=C1/CCCC/C1=C\c1ccccc1)c1ccccc1`, the TGI is reported as over 100 µM.

Each compound was assayed on UACC-257 melanoma (assay: NCI-60 cell line screen, 48 h).
`COc1cc(C2c3cc4c(cc3OC(N3CCCC3)C2C)OCO4)cc(OC)c1O` (stereo not drawn) gave a TGI of over 100 µM.
With `COC(=O)C1=C(C)N(NC(=O)c2ccccc2)C(C)(O)C12CCOC2=O` (stereo not drawn) the TGI was over 100 µM.
For `CCOC(CCNCC(OCC)OCC)OCC`, the TGI was over 10 µM.
`CC1=CC(/C=C(\C)CCCc2ccoc2)C2(OC(=O)C(C)=C2O)[C@H]2C1CC[C@@H]2C` (stereo partly drawn) was tested, and the TGI was over 100 µM.
`O=C(O/N=C1/CCCC/C1=C\c1ccccc1)c1ccccc1` was tested, and the TGI was over 100 µM.

Each compound was assayed on SF-295 CNS (assay: NCI-60 cell line screen, 48 h).
Work on `COc1cc(C2c3cc4c(cc3OC(N3CCCC3)C2C)OCO4)cc(OC)c1O` (stereo not drawn) yielded a TGI of 22.3 µM.
With `COC(=O)C1=C(C)N(NC(=O)c2ccccc2)C(C)(O)C12CCOC2=O` (stereo not drawn) the TGI was over 100 µM.
For `CCOC(CCNCC(OCC)OCC)OCC`, the TGI was over 10 µM.
With `CC1=CC(/C=C(\C)CCCc2ccoc2)C2(OC(=O)C(C)=C2O)[C@H]2C1CC[C@@H]2C` (stereo partly drawn) the TGI was 56.2 µM.
With `O=C(O/N=C1/CCCC/C1=C\c1ccccc1)c1ccccc1` the TGI was over 100 µM.

Each compound was assayed on LXFL 529 NSCLC (assay: NCI-60 cell line screen, 48 h).
`COC(=O)C1=C(C)N(NC(=O)c2ccccc2)C(C)(O)C12CCOC2=O` (stereo not drawn) showed a TGI of over 100 µM.
Work on `CCC[CH2][Ge]([CH2]CCC)([CH2]CCC)[O]C(=O)CC(=O)c1ccccc1` yielded a GI50 of 0.325 µM and a TGI of 13.7 µM.
`CC1=CC(/C=C(\C)CCCc2ccoc2)C2(OC(=O)C(C)=C2O)[C@H]2C1CC[C@@H]2C` (stereo partly drawn) was tested, and the TGI was 58.8 µM.
Work on `O=C(O/N=C1/CCCC/C1=C\c1ccccc1)c1ccccc1` yielded a TGI of over 100 µM.

The compounds below were run on MDA-MB-435 (assay: NCI-60 cell line screen, 48 h).
Compound `COc1cc(C2c3cc4c(cc3OC(N3CCCC3)C2C)OCO4)cc(OC)c1O` (stereo not drawn) has a TGI of 15.2 µM.
`CCOC(CCNCC(OCC)OCC)OCC` was tested, and the TGI was over 10 µM.

These compounds were tested on OVCAR-3 ovarian (assay: NCI-60 cell line screen, 48 h).
`COc1cc(C2c3cc4c(cc3OC(N3CCCC3)C2C)OCO4)cc(OC)c1O` (stereo not drawn) was tested, and the TGI was over 65.5 µM.
`COC(=O)C1=C(C)N(NC(=O)c2ccccc2)C(C)(O)C12CCOC2=O` (stereo not drawn) showed a TGI of over 100 µM.
In the case of `CCC[CH2][Ge]([CH2]CCC)([CH2]CCC)[O]C(=O)CC(=O)c1ccccc1`, the GI50 is reported as 2.63 µM and the TGI is reported as 17.6 µM.
Compound `CCOC(CCNCC(OCC)OCC)OCC` has a TGI of over 10 µM.
`CC1=CC(/C=C(\C)CCCc2ccoc2)C2(OC(=O)C(C)=C2O)[C@H]2C1CC[C@@H]2C` (stereo partly drawn) gave a TGI of 51 µM.
`O=C(O/N=C1/CCCC/C1=C\c1ccccc1)c1ccccc1` gave a TGI of over 100 µM.

These compounds were tested on UO-31 renal (assay: NCI-60 cell line screen, 48 h).
Compound `COc1cc(C2c3cc4c(cc3OC(N3CCCC3)C2C)OCO4)cc(OC)c1O` (stereo not drawn) has a TGI of over 100 µM.
With `COC(=O)C1=C(C)N(NC(=O)c2ccccc2)C(C)(O)C12CCOC2=O` (stereo not drawn) the TGI was over 100 µM.
With `CCC[CH2][Ge]([CH2]CCC)([CH2]CCC)[O]C(=O)CC(=O)c1ccccc1` the GI50 was 1.66 µM and the TGI was 15.9 µM.
For `CC1=CC(/C=C(\C)CCCc2ccoc2)C2(OC(=O)C(C)=C2O)[C@H]2C1CC[C@@H]2C` (stereo partly drawn), the TGI was 31 µM.
With `O=C(O/N=C1/CCCC/C1=C\c1ccccc1)c1ccccc1` the TGI was over 100 µM.

The compounds below were run on MALME-3M melanoma (assay: NCI-60 cell line screen, 48 h).
Compound `COc1cc(C2c3cc4c(cc3OC(N3CCCC3)C2C)OCO4)cc(OC)c1O` (stereo not drawn) has a TGI of over 66 µM.
`COC(=O)C1=C(C)N(NC(=O)c2ccccc2)C(C)(O)C12CCOC2=O` (stereo not drawn) showed a TGI of 1.86 µM.
For `CCC[CH2][Ge]([CH2]CCC)([CH2]CCC)[O]C(=O)CC(=O)c1ccccc1`, the GI50 was 1.47 µM and the TGI was 13 µM.
With `CCOC(CCNCC(OCC)OCC)OCC` the TGI was over 10 µM.
`CC1=CC(/C=C(\C)CCCc2ccoc2)C2(OC(=O)C(C)=C2O)[C@H]2C1CC[C@@H]2C` (stereo partly drawn) showed a TGI of 57.1 µM.
In the case of `O=C(O/N=C1/CCCC/C1=C\c1ccccc1)c1ccccc1`, the TGI is reported as over 100 µM.

Each compound was assayed on SNB-19 CNS (assay: NCI-60 cell line screen, 48 h).
`COc1cc(C2c3cc4c(cc3OC(N3CCCC3)C2C)OCO4)cc(OC)c1O` (stereo not drawn) was tested, and the TGI was 38.9 µM.
`COC(=O)C1=C(C)N(NC(=O)c2ccccc2)C(C)(O)C12CCOC2=O` (stereo not drawn) showed a TGI of over 100 µM.
`CCC[CH2][Ge]([CH2]CCC)([CH2]CCC)[O]C(=O)CC(=O)c1ccccc1` gave a GI50 of 11.7 µM and a TGI of 24 µM.
Work on `CCOC(CCNCC(OCC)OCC)OCC` yielded a TGI of over 10 µM.
Compound `CC1=CC(/C=C(\C)CCCc2ccoc2)C2(OC(=O)C(C)=C2O)[C@H]2C1CC[C@@H]2C` (stereo partly drawn) has a TGI of 42.6 µM.
Work on `O=C(O/N=C1/CCCC/C1=C\c1ccccc1)c1ccccc1` yielded a TGI of over 100 µM.

What follows are compounds tested on CAKI-1 renal (assay: NCI-60 cell line screen, 48 h).
Work on `COc1cc(C2c3cc4c(cc3OC(N3CCCC3)C2C)OCO4)cc(OC)c1O` (stereo not drawn) yielded a TGI of over 95.1 µM.
`COC(=O)C1=C(C)N(NC(=O)c2ccccc2)C(C)(O)C12CCOC2=O` (stereo not drawn) gave a TGI of over 100 µM.
Compound `CCC[CH2][Ge]([CH2]CCC)([CH2]CCC)[O]C(=O)CC(=O)c1ccccc1` has a GI50 of 6.37 µM and a TGI of 20.6 µM.
For `CCOC(CCNCC(OCC)OCC)OCC`, the TGI was over 10 µM.
With `CC1=CC(/C=C(\C)CCCc2ccoc2)C2(OC(=O)C(C)=C2O)[C@H]2C1CC[C@@H]2C` (stereo partly drawn) the TGI was over 100 µM.

The compounds below were run on M14 melanoma (assay: NCI-60 cell line screen, 48 h).
For `COc1cc(C2c3cc4c(cc3OC(N3CCCC3)C2C)OCO4)cc(OC)c1O` (stereo not drawn), the TGI was over 51.1 µM.
With `COC(=O)C1=C(C)N(NC(=O)c2ccccc2)C(C)(O)C12CCOC2=O` (stereo not drawn) the TGI was over 100 µM.
In the case of `CCC[CH2][Ge]([CH2]CCC)([CH2]CCC)[O]C(=O)CC(=O)c1ccccc1`, the GI50 is reported as 1.42 µM and the TGI is reported as 8.86 µM.
`CCOC(CCNCC(OCC)OCC)OCC` showed a TGI of over 10 µM.
`CC1=CC(/C=C(\C)CCCc2ccoc2)C2(OC(=O)C(C)=C2O)[C@H]2C1CC[C@@H]2C` (stereo partly drawn) gave a TGI of 60.9 µM.
Work on `O=C(O/N=C1/CCCC/C1=C\c1ccccc1)c1ccccc1` yielded a TGI of over 100 µM.

Each compound was assayed on RXF 393 renal (assay: NCI-60 cell line screen, 48 h).
With `COc1cc(C2c3cc4c(cc3OC(N3CCCC3)C2C)OCO4)cc(OC)c1O` (stereo not drawn) the TGI was over 42.7 µM.
For `CCC[CH2][Ge]([CH2]CCC)([CH2]CCC)[O]C(=O)CC(=O)c1ccccc1`, the GI50 was 0.728 µM and the TGI was 3.65 µM.
